What all share (assay type): functional
In assay [1] the test system is Amaranthus retroflexus. In words: Post-emergence herbicidal activity against one-leaf stage of Amaranthus retroflexus under greenhouse condition at 750 g /ha measured after 24 days by spray method. Conditions: 576 h, read-out: GI.
Assay [2] deals with Digitaria. The experiment in a line: Pre-emergence herbicidal activity against Digitaria adscendens under greenhouse condition at 750 g /ha measured after 24 days by spray method. Conditions: in Digitaria adscendens, 576 h, read-out: GI.
Assay [3] has as its system Spirodela polyrhiza. In words: Bleaching herbicidal activity in Spirodela polyrhiza fronds cultured in compound-containing in medium assessed as chlorophyll inhibition at 10 ug/ml after 7 days. Conditions: 168 h.
The subject of assay [4] is Echinochloa crus-galli. In words: Pre-emergence herbicidal activity against Echinochloa crus-galli (barnyard grass) under greenhouse condition at 750 g /ha measured after 24 days by spray method. Conditions: 576 h, read-out: GI.
The test system of assay [5] is Echinochloa crus-galli. In words: Post-emergence herbicidal activity against one-leaf stage of Echinochloa crus-galli (barnyard grass) under greenhouse condition at 750 g /ha measured after 24 days by spray method. Conditions: 576 h, read-out: GI.
Assay [6] deals with Brassica rapa subsp. oleifera. The experiment in a line: Post-emergence herbicidal activity against one-leaf stage Brassica rapa subsp. oleifera under greenhouse condition at 750 g /ha measured after 24 days by spray method. As to conditions: 576 h, read-out: GI.
Assay [7] deals with Spirodela polyrhiza. In words: Bleaching herbicidal activity in Spirodela polyrhiza fronds cultured in compound-containing in medium assessed as chlorophyll inhibition at 1 ug/ml after 7 days. As to conditions: 168 h.
For assay [8], the system named is Brassica rapa subsp. oleifera. In words: Pre-emergence herbicidal activity against Brassica rapa subsp. oleifera under greenhouse condition at 750 g /ha measured after 24 days by spray method. As to conditions: 576 h, read-out: GI.
The test system of assay [9] is Digitaria. In words: Post-emergence herbicidal activity against one-leaf stage of Digitaria adscendens under greenhouse condition at 750 g /ha measured after 24 days by spray method. As to conditions: in Digitaria adscendens, 576 h, read-out: GI.
The subject of assay [10] is Amaranthus retroflexus. The experiment in a line: Pre-emergence herbicidal activity against Amaranthus retroflexus under greenhouse condition at 750 g /ha measured after 24 days by spray method. Conditions: 576 h, read-out: GI.

Among the data in ChEMBL document CHEMBL3045111, “Synthesis and herbicidal activities of novel 3-(substituted benzyloxy or phenoxy)-6-methyl-4-(3-trifluoromethylphenyl)pyridazine derivatives” (2012) are inhibition of growth and inhibition values, retold here.

A word on the inhibition: it is the relative decrease from the control value, in per cent.

As to `COc1cccc(COc2nnc(C)cc2-c2cccc(C(F)(F)F)c2)c1`, the inhibition of growth at 750 g/ha is 12% with Amaranthus retroflexus [1]; 0% in the assay on Digitaria [2]; 20% with Echinochloa crus-galli [4]; 5% in the assay on Echinochloa crus-galli [5]; 9% in [6]; 0% in [8]. The inhibition of growth at 750 g/ha in the assay with Digitaria [9] and with Amaranthus retroflexus [10] was 0% in each case. Further, in the assay with Spirodela polyrhiza [3], the inhibition at 10 µg/mL was 23%. In the assay with Spirodela polyrhiza [7], the inhibition at 1 µg/mL amounted to 5%.
Take `Cc1cccc(COc2nnc(C)cc2-c2cccc(C(F)(F)F)c2)c1`: the inhibition of growth at 750 g/ha in the assay on Amaranthus retroflexus [1] stood at 22%; in the assay with Digitaria [2] it was 0%; in the assay with Echinochloa crus-galli [4], 10%; with Echinochloa crus-galli [5], 0%; in [6], 13%; in assay [8], 0%. Further, the inhibition of growth at 750 g/ha in the assay on Digitaria [9] and with Amaranthus retroflexus [10] was 0% throughout. The inhibition at 10 µg/mL with Spirodela polyrhiza [3] came out at 46%. For the same molecule, in the assay with Spirodela polyrhiza [7], the inhibition at 1 µg/mL came out at 43%.
`Cc1cc(-c2cccc(C(F)(F)F)c2)c(OCc2ccc(F)cc2)nn1`: the inhibition of growth at 750 g/ha with Amaranthus retroflexus [1] came out at 41%; in the assay on Digitaria [2], 0%; in the assay with Echinochloa crus-galli [4], 24%; with Echinochloa crus-galli [5], 2%; in assay [6] it was 87%; in [8], 8%. For the same molecule, the inhibition of growth at 750 g/ha in the assay on Digitaria [9] amounted to 56%; in the assay with Amaranthus retroflexus [10], 8%. Further, the inhibition at 10 µg/mL with Spirodela polyrhiza [3] is 87%. Further, the inhibition at 1 µg/mL in the assay with Spirodela polyrhiza [7] was 76%.
On to `Cc1cc(C)cc(Oc2nnc(C)cc2-c2cccc(C(F)(F)F)c2)c1`, for which the inhibition of growth at 750 g/ha with Amaranthus retroflexus [1] was 8%; with Digitaria [2], 11%; with Echinochloa crus-galli [4] it was 10%; in the assay with Echinochloa crus-galli [5] it was 6%; in assay [6], 56%; in [8], 0%. Moreover, the inhibition of growth at 750 g/ha with Digitaria [9] came to 0%; in the assay with Amaranthus retroflexus [10] it was 10%. Also, the inhibition at 10 µg/mL with Spirodela polyrhiza [3] turned out to be 63%. In the assay on Spirodela polyrhiza [7], the inhibition at 1 µg/mL is 42%.
For `Cc1ccc(COc2nnc(C)cc2-c2cccc(C(F)(F)F)c2)cc1`, the inhibition of growth at 750 g/ha in the assay with Amaranthus retroflexus [1] amounted to 22%; in the assay on Digitaria [2], 4%; in the assay with Echinochloa crus-galli [4], 28%; in the assay on Echinochloa crus-galli [5] it was 6%; in assay [6] it was 41%; in [8] it was 0%. Besides, the values for the inhibition of growth at 750 g/ha in the assay on Digitaria [9] and with Amaranthus retroflexus [10] were 0% and 9%, respectively. Besides, in the assay with Spirodela polyrhiza [3], the inhibition at 10 µg/mL was determined as 31%. For the same molecule, the inhibition at 1 µg/mL in the assay with Spirodela polyrhiza [7] was 20%.
With `Cc1cc(-c2cccc(C(F)(F)F)c2)c(OCc2cccc(Cl)c2)nn1`, the inhibition of growth at 750 g/ha in the assay on Amaranthus retroflexus [1] was 31%; in the assay with Digitaria [2], 2%; with Echinochloa crus-galli [4], 36%; in the assay on Echinochloa crus-galli [5] it was 0%; in assay [6], 33%; in assay [8] it was 0%. The inhibition of growth at 750 g/ha in the assay with Digitaria [9] was found to be 0%; in the assay on Amaranthus retroflexus [10], 18%. Further, the inhibition at 10 µg/mL in the assay with Spirodela polyrhiza [3] was 45%. Moreover, the inhibition at 1 µg/mL with Spirodela polyrhiza [7] amounted to 29%.
`Cc1cc(-c2cccc(C(F)(F)F)c2)c(Oc2ccccc2Br)nn1`: the inhibition of growth at 750 g/ha with Amaranthus retroflexus [1] stood at 0%; in the assay with Digitaria [2], 7%; in the assay with Echinochloa crus-galli [4] it was 0%; in the assay on Echinochloa crus-galli [5], 30%; in [6], 34%; in assay [8] it was 0%. Also, the inhibition of growth at 750 g/ha with Digitaria [9] is 21%; in the assay on Amaranthus retroflexus [10] it was 0%. The inhibition at 10 µg/mL in the assay with Spirodela polyrhiza [3] worked out at 78%. Further, the inhibition at 1 µg/mL in the assay with Spirodela polyrhiza [7] is 0%.
As for `Cc1cc(-c2cccc(C(F)(F)F)c2)c(OCc2c(Cl)cccc2Cl)nn1`, the inhibition of growth at 750 g/ha with Amaranthus retroflexus [1] is 34%; in the assay with Digitaria [2] it was 41%; in the assay on Echinochloa crus-galli [4] it was 1%; in the assay on Echinochloa crus-galli [5], 4%; in assay [6], 20%; in assay [8] it was 2%. For the same molecule, the inhibition of growth at 750 g/ha worked out at 0% in the assay on Digitaria [9] and 15% with Amaranthus retroflexus [10]. Further, the inhibition at 10 µg/mL in the assay on Spirodela polyrhiza [3] worked out at 26%. Also, the inhibition at 1 µg/mL in the assay on Spirodela polyrhiza [7] was found to be 4%.
As to `Cc1cc(-c2cccc(C(F)(F)F)c2)c(Oc2cccc(Cl)c2)nn1`, the inhibition of growth at 750 g/ha came out at 63% with Amaranthus retroflexus [1]; 7% in the assay on Digitaria [2]; 6% with Echinochloa crus-galli [4]; 57% with Echinochloa crus-galli [5]; 100% in assay [6]; 11% in assay [8]. Besides, the results for the inhibition of growth at 750 g/ha in the assay on Digitaria [9] and with Amaranthus retroflexus [10] were 74% and 0%, respectively. Moreover, the inhibition at 10 µg/mL with Spirodela polyrhiza [3] is 72%. Also, in the assay with Spirodela polyrhiza [7], the inhibition at 1 µg/mL was determined as 72%.
For `Cc1cc(-c2cccc(C(F)(F)F)c2)c(OCc2ccc(Br)cc2)nn1`, the inhibition of growth at 750 g/ha turned out to be 23% in the assay on Amaranthus retroflexus [1]; 0% in the assay on Digitaria [2]; 4% in the assay with Echinochloa crus-galli [4]; 15% in the assay on Echinochloa crus-galli [5]; 20% in [6]; 0% in [8]. Further, the inhibition of growth at 750 g/ha in the assay with Digitaria [9] and in the assay with Amaranthus retroflexus [10] was 0% throughout. Further, in the assay on Spirodela polyrhiza [3], the inhibition at 10 µg/mL was found to be 27%. For the same molecule, in the assay with Spirodela polyrhiza [7], the inhibition at 1 µg/mL was determined as 14%.
As to `Cc1cc(-c2cccc(C(F)(F)F)c2)c(OCc2ccc(Cl)cc2Cl)nn1`, the inhibition of growth at 750 g/ha was found to be 35% with Amaranthus retroflexus [1]; 0% with Digitaria [2]; 18% in the assay with Echinochloa crus-galli [4]; 0% in the assay with Echinochloa crus-galli [5]; 43% in assay [6]; 2% in [8]. Besides, the inhibition of growth at 750 g/ha in the assay on Digitaria [9] was found to be 0%; in the assay with Amaranthus retroflexus [10], 3%. The inhibition at 10 µg/mL in the assay with Spirodela polyrhiza [3] turned out to be 44%. For the same molecule, the inhibition at 1 µg/mL in the assay on Spirodela polyrhiza [7] stood at 38%.
Turning to `Cc1cc(-c2cccc(C(F)(F)F)c2)c(Oc2ccc(C(C)(C)C)cc2)nn1`, the inhibition of growth at 750 g/ha in the assay on Amaranthus retroflexus [1] is 38%; in the assay with Digitaria [2] it was 4%; in the assay on Echinochloa crus-galli [4], 0%; in the assay on Echinochloa crus-galli [5], 33%; in assay [6], 44%; in assay [8], 1%. The inhibition of growth at 750 g/ha in the assay on Digitaria [9] and in the assay on Amaranthus retroflexus [10] was 0% each time. Moreover, in the assay on Spirodela polyrhiza [3], the inhibition at 10 µg/mL came to 35%. In addition, in the assay on Spirodela polyrhiza [7], the inhibition at 1 µg/mL came to 0%.
Take `Cc1cc(-c2cccc(C(F)(F)F)c2)c(Oc2c(C)cccc2C)nn1`: the inhibition of growth at 750 g/ha in the assay on Amaranthus retroflexus [1] worked out at 34%; in the assay on Digitaria [2] it was 13%; with Echinochloa crus-galli [4] it was 2%; in the assay on Echinochloa crus-galli [5] it was 0%; in assay [6], 0%; in assay [8], 0%. Moreover, the inhibition of growth at 750 g/ha is 0% in the assay on Digitaria [9] and 19% with Amaranthus retroflexus [10]. For the same molecule, the inhibition at 10 µg/mL with Spirodela polyrhiza [3] was determined as 9%. For the same molecule, the inhibition at 1 µg/mL in the assay on Spirodela polyrhiza [7] is 8%.
In the case of `Cc1cc(-c2cccc(C(F)(F)F)c2)c(OCc2cccc(Br)c2)nn1`, the inhibition of growth at 750 g/ha in the assay with Amaranthus retroflexus [1] came out at 39%; in the assay with Digitaria [2] it was 0%; in the assay with Echinochloa crus-galli [4], 7%; with Echinochloa crus-galli [5], 4%; in [6], 65%; in assay [8], 0%. In addition, the inhibition of growth at 750 g/ha stood at 3% in the assay with Digitaria [9] and 0% in the assay on Amaranthus retroflexus [10]. Moreover, in the assay with Spirodela polyrhiza [3], the inhibition at 10 µg/mL came to 83%. The inhibition at 1 µg/mL in the assay with Spirodela polyrhiza [7] was 66%.
For `COc1ccc(COc2nnc(C)cc2-c2cccc(C(F)(F)F)c2)cc1`, the inhibition of growth at 750 g/ha with Amaranthus retroflexus [1] was found to be 16%; with Digitaria [2], 48%; in the assay with Echinochloa crus-galli [4], 39%; with Echinochloa crus-galli [5] it was 0%; in assay [6], 13%; in [8], 0%. Also, the inhibition of growth at 750 g/ha with Digitaria [9] came to 20%; in the assay with Amaranthus retroflexus [10], 0%. Besides, in the assay with Spirodela polyrhiza [3], the inhibition at 10 µg/mL worked out at 72%. Besides, in the assay with Spirodela polyrhiza [7], the inhibition at 1 µg/mL turned out to be 0%.
As to `Cc1cc(-c2cccc(C(F)(F)F)c2)c(OCc2ccc(N(C)C)cc2)nn1`, the inhibition of growth at 750 g/ha in the assay with Amaranthus retroflexus [1] was 21%; in the assay with Digitaria [2] it was 6%; in the assay with Echinochloa crus-galli [4], 17%; in the assay with Echinochloa crus-galli [5] it was 0%; in [6], 7%; in [8], 4%. Moreover, the inhibition of growth at 750 g/ha in the assay with Digitaria [9] and with Amaranthus retroflexus [10] was 11% each time. Besides, in the assay on Spirodela polyrhiza [3], the inhibition at 10 µg/mL came to 97%. In the assay on Spirodela polyrhiza [7], the inhibition at 1 µg/mL was 64%.
